Results published in article PMC6222718, “Ethylenediamine Derived Carboxamides of Betulinic and Ursolic Acid as Potential Cytotoxic Agents” (Molecules : A Journal of Synthetic Chemistry and Natural …, 2018).

Experiments:
[1] = system: HT29 (colon adenocarcinoma); assay: SRB cytotoxicity assay, HT29; format: cell-based, human; settings: for EC50: Homo sapiens, HT-29, SRB assay, 96 h of treatment, HT29; for Selectivity index (SI) HT29: SI = EC50 (NIH 3T3)/EC50 (HT29)
Method: (§1) The cytotoxicity of ursolic and betulinic carboxamides 3–30 was determined in sulforhodamine B (SRB) assays.
(§2) The cell lines used were human cancer cell lines: 518A2 (melanoma), A2780 (ovarian carcinoma), HT29 (colon adenocarcinoma), MCF-7 (breast adenocarcinoma), 8505C (thyroid carcinoma) and non-malignant mouse fibroblasts NIH 3T3. Cultures were maintained as monolayers in RPMI 1640 medium with L-glutamine (Capricorn Scientific GmbH, Ebsdorfergrund, Germany) supplemented with 10% heat inactivated fetal bovineserum (Sigma-Aldrich Chemie GmbH, Steinheim, Germany) and penicillin/streptomycin (Capricorn Scientific GmbH, Ebsdorfergrund, Germany) at 37 °C in a humidified atmosphere with 5% CO2.
(§3) The cytotoxicity of the compounds was evaluated using the sulforhodamine-B (Kiton-Red S, ABCR) micro culture colorimetric assay. Cells were seeded into 96-well plates on day 0 at appropriate cell densities to prevent confluence of the cells during the period of experiment. After 24 h, the cells were treated with 6 different concentrations (1, 3, 7, 12, 20 and 30 µM) minimum. The final concentration of DMSO/DMF never exceeded 0.5%, which was non-toxic to the cells. After a 96 h treatment, the supernatant medium from the 96-well plates was discarded, the cells were fixed with 10% trichloroacetic acid (TCA) and allowed to rest at 4 °C. After 24 h fixation, the cells were washed in a strip washer and dyed with SRB solution (100 µL, 0.4% in 1% acetic acid) for about 20 min. After dying, the plates were washed four times with 1% acetic acid to remove the excess of the dye and allowed to air-dry overnight. Tris base solution (200 µL, 10 mM) was added to each well and absorbance was measured at λ = 570 nm using a 96-well plate reader (Tecan Spectra, Crailsheim, Germany). The EC50 values were averaged from three independent experiments performed each in triplicate calculated from semi logarithmic dose response curves applying a non-linear 4P Hills-slope equation (GraphPad Prism5; variables top and bottom were set to 100 and 0, respectively).

[2] = system: A2780 (ovarian carcinoma); assay: SRB cytotoxicity assay, A2780; format: cell-based, human; settings: for EC50: Homo sapiens, SRB assay, 96 h of treatment, A2780; for Selectivity index (SI) A2780: SI = EC50 (NIH 3T3)/EC50 (A2780)
Method: as §1, §2, §3

[3] = system: MCF-7 (breast adenocarcinoma); assay: SRB cytotoxicity assay, MCF-7; format: cell-based, human; settings: for EC50: Homo sapiens, MCF7, SRB assay, 96 h of treatment, MCF-7; for Selectivity index (SI) MCF-7: SI = EC50 (NIH 3T3)/EC50 (MCF-7)
Method: as §1, §2, §3

518A2 (melanoma) = assay: SRB cytotoxicity assay, 518A2; format: cell-based, human; settings: for EC50: Homo sapiens, SRB assay, 96 h of treatment, 518A2; for Selectivity index (SI) 518A2: SI = EC50 (NIH 3T3)/EC50 (518A2)
Method: as §1, §2, §3

[4] = system: non-malignant mouse fibroblasts NIH 3T3; assay: SRB cytotoxicity assay, NIH 3T3; format: cell-based; settings: NIH3T3, 96 h of treatment
Method: as §1, §2, §3

[5] = system: 8505C (thyroid carcinoma); assay: SRB cytotoxicity assay, 8505C; format: cell-based, human; settings: for EC50: Homo sapiens, SRB assay, 96 h of treatment, 8505C; for Selectivity index (SI) 8505C: SI = EC50 (NIH 3T3)/EC50 (8505C)
Method: as §1, §2, §3

SMILES	melting point	EC50 [1] [µM]	Selectivity index (SI) HT29 [1]	EC50 [2] [µM]	Selectivity index (SI) A2780 [2]	EC50 [3] [µM]	Selectivity index (SI) MCF-7 [3]	EC50 (518A2 (melanoma)) [µM]	Selectivity index (SI) 518A2 (518A2 (melanoma))	EC50 [4] [µM]	EC50 [5] [µM]	Selectivity index (SI) 8505C [5]
CC(=O)O[C@H]1CC[C@@]2(C)C(CC[C@]3(C)C2CC=C2C4[C@@H](C)[C@H](C)CC[C@]4(C(=O)NCCOCCN)CC[C@]23C)C1(C)C (stereo partly drawn) [Compound 9, (3β)-N-[2-(2-Aminoethoxy)ethyl]-3-acetyloxy-urs-12-en-28-amide]	91 to 94 °C	1.6 ± 0.1	1.93	3.4 ± 0.5	0.91	2.3 ± 0.4	1.35	3.5 ± 0.6	0.89	3.1 ± 0.4	5.8 ± 0.4	0.53
C[C@@H]1CC[C@]2(C(=O)NCCN)CC[C@]3(C)C(=CCC4[C@@]5(C)CC[C@H](O)C(C)(C)C5CC[C@]43C)C2[C@H]1C (stereo partly drawn) [Compound 10, (3β)-N-(2-Aminoethyl)-3-hydroxy-urs-12-en-28-amide]	139 to 142 °C	2 ± 0.1	1.95	3.3 ± 0.1	1.18	3.2 ± 0.3	1.22	3.7 ± 0.5	1.05	3.9 ± 0.1	3.7 ± 0.4	1.05
C[C@@H]1CC[C@]2(C(=O)NCCN(C)C)CC[C@]3(C)C(=CCC4[C@@]5(C)CC[C@H](O)C(C)(C)C5CC[C@]43C)C2[C@H]1C (stereo partly drawn) [Compound 11, (3β)-N-[2-(Dimethylamino)ethyl]-3-hydroxy-urs-12-en-28-amide]	270 to 273 °C (dec.)	3 ± 0.2	2.23	4.3 ± 0.5	1.56	4.2 ± 0.9	1.60	6.6 ± 0.3	1.02	6.7 ± 1.3	7.3 ± 0.2	0.92
C[C@@H]1CC[C@]2(C(=O)NCCN3CCCC3)CC[C@]3(C)C(=CCC4[C@@]5(C)CC[C@H](O)C(C)(C)C5CC[C@]43C)C2[C@H]1C (stereo partly drawn) [Compound 12, (3β)-N-(2-Pyrrolidin-1-ylethyl)-3-hydroxy-urs-12-en-28-amide]	263 to 266 °C (dec.)	2.6 ± 0.3	2.38	3.3 ± 0.3	1.88	3.5 ± 1	1.77	5.5 ± 0.1	1.13	6.2 ± 0.4	5.7 ± 0.2	1.09
C[C@@H]1CC[C@]2(C(=O)NCCN3CCCCC3)CC[C@]3(C)C(=CCC4[C@@]5(C)CC[C@H](O)C(C)(C)C5CC[C@]43C)C2[C@H]1C (stereo partly drawn) [Compound 13, (3β)-N-(2-Piperidin-1-ylethyl)-3-hydroxy-urs-12-en-28-amide]	120 to 124 °C	8.4 ± 0.7	0.42	7.6 ± 0.6	0.46	11.1 ± 1.4	0.32	12.6 ± 0.2	0.28	3.5 ± 0.6	11.1 ± 0.3	0.32
